Several values for one entry are separate records, joined by “and”; a condition that tells them apart may be missing. Equal entries are not always repeated.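 1) Cells in 96-well plates. 2) Compound, 48 h, 5 concentrations. 3) Linear interpolation between surrounding doses. 4) Unreached endpoint = highest concentration. GI50 is the concentration that inhibits growth by half. TGI: total growth inhibition.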 Some results are limits rather than exact numbers.

GI50 and TGI data for twelve compounds are collected here from PubChem BioAssay (NCI).

Common to all, as to assay: NCI anticancer screen, dose series, 48 h
Test [1] deals with A498 renal.
In test [2] the test system is PC-3 prostate.
Test [3] relates to CAKI-1 renal.
The test system of test [4] is MCF7 breast.
Test [5] relates to OVCAR-5 ovarian.
In test [6] the test system is OVCAR-3 ovarian.
Test [7] has as its system IGROV1 ovarian.
For test [8], the system named is SK-MEL-28 melanoma.
The test system of test [9] is SF-268 CNS.
Test [10] concerns SW-620 colon.

`COc1cc(F)cc([C@@H](CO)NC(=O)[C@@H](C)N2Cc3ccc(-c4nc(NC5CCOCC5)ncc4Cl)cc3C2=O)c1`: the GI50 in test [1] was 0.0878 µM; in [2] it was 9.69 µM; in test [3] it was 1.93 µM; in [4] it was 9.67 µM; in [5], under 0.0127 µM; in test [6], 16.5 µM. The GI50 in [7] was 0.0409 µM; in test [8], under 0.01 µM; in [9] it was 14.1 µM; in test [10], 0.0761 µM. The TGI in test [1] is 5.86 µM; in [2] it was 98.2 µM; in [3], 69.1 µM; in test [4], 49.6 µM; in [5] it was over 100 µM; in [6], over 68.6 µM. In addition, the TGI is 35.6 µM in test [7], 0.0318 µM in [8], 99.6 µM in test [9] and over 100 µM in test [10].

Turning to `CC(=O)C1COC(O)C1C` (centres undefined), the TGI in [1] is over 100 µM; in test [2], 55.5 µM; in test [3] it was 62.9 µM; in test [4], 67.3 µM; in [5] it was 59.2 µM; in test [6] it was 37 µM. The TGI in test [7] came to 42.5 µM; in test [8], 38.6 µM; in test [9], 49.9 µM; in test [10] it was 44.2 µM.

Turning to `COc1ccc2nc3cc([N+](=O)[O-])ccc3c(NCCCN(CCO)CCO)c2c1`, the GI50 in test [1] was 18 µM; in test [3], 10.9 µM; in test [4], 0.889 µM; in [5] it was 12.5 µM; in test [6], 5.53 µM; in [7], 2.51 µM. Also, the values for the GI50 in test [8], in test [9] and in test [10] were 3.93 µM, 4.09 µM and 3.15 µM, respectively. The TGI in [1] stood at 38.6 µM; in [2], 20.1 µM; in test [3], 22.8 µM; in [4], 4.95 µM; in [5], 25.2 µM; in test [6] it was 12.3 µM. The TGI in test [7] was found to be 7.13 µM; in test [8] it was 13 µM; in test [9], 10.8 µM; in test [10], 12.3 µM.

For `NC(=S)N/N=C/c1ccc(O)cn1`, the GI50 in [1] was 12.4 µM and 36 µM; in test [3], 32.1 µM and 21.8 µM and 8.53 µM; in test [4] it was 2.03 µM; in test [5], 30.2 µM and 34.8 µM; in [6], 19.9 µM and 5.16 µM; in test [7], 50.9 µM and 27.1 µM. Besides, the GI50 is 49.9 µM and 41.6 µM in test [8]; 5.55 µM and 3.43 µM in test [9]; 27.4 µM and 13.2 µM in test [10]. Moreover, the TGI in test [1] was 131 µM and 292 µM; in test [2], over 1500 µM; in [3], 178 µM and 339 µM; in test [4], over 1500 µM; in [5], > 1500 µM and 928 µM; in test [6] it was > 1500 µM and 240 µM. The TGI in test [7] is 916 µM and 827 µM; in [8], > 1500 µM and 1050 µM; in test [10], over 1500 µM.

With `O=C(NCCCCCCNC(=O)n1cc(F)c(=O)[nH]c1=O)NCCCOCCOCCOCCOCCOCCOCCOCCOCCOCCOCCOCCOCCOCCOCCOCCOCCOCCOCCOCCOCCOCCCNC(=O)C(O)C(O)C(OC1OC(CO)C(O)C(O)C1O)C(O)CO` (centres undefined), the TGI is over 100 µM in [1]; over 100 µM in [2]; over 100 µM in test [3]; over 46.8 µM in [4]; over 100 µM in test [5]; over 100 µM in test [6]. Further, the TGI in test [7], in test [8], in test [9] and in test [10] was over 100 µM in each case.

With `O=CC(Br)C(Br)c1ccccc1` (centres undefined), the GI50 in test [1] was 13.9 µM; in test [2], 2.39 µM; in test [3], 2.6 µM; in test [4], 0.478 µM; in [5], 4.5 µM; in test [6], 1.32 µM. Moreover, the GI50 in test [7] was 11 µM; in test [8], 2.31 µM; in [9] it was 4.2 µM; in test [10] it was 0.776 µM. The TGI in test [1] is 29.5 µM; in [2], 6.75 µM; in test [3], 6.98 µM; in test [4], 2.23 µM; in [5], 13.2 µM; in test [6], 2.67 µM. The TGI in test [7] was determined as 26 µM; in test [8], 6.35 µM; in test [9], 16 µM; in [10] it was 2.33 µM.

For `COc1ccc(-c2nn(-c3cccc(Cl)c3)cc2-c2c(C#N)c(=O)n3[nH]c(-c4ccc(C)cc4)nc3c2C#N)cc1`, the GI50 in [1] was 0.575 µM; in test [2] it was 1.7 µM; in [3] it was 2.46 µM; in [4] it was 3.22 µM; in test [5] it was 4.5 µM; in test [6], 6.52 µM. Besides, the GI50 in [7] was 3.51 µM; in test [8], 6.55 µM; in test [9] it was 1.62 µM; in test [10] it was 0.521 µM. Also, the TGI was determined as 7.63 µM in [1]; 9.26 µM in test [2]; 10.4 µM in test [3]; 11.4 µM in [4]; 11.8 µM in test [5]; 13.7 µM in [6]. The TGI in test [7] was 11.3 µM; in [8], 13.2 µM; in [9], 7.76 µM; in test [10], 2.73 µM.

For the compound `CN1C(=O)C(=Cc2cn(Cc3ccccc3)c3ccccc23)C(=O)N(C)C1=O`, the GI50 in test [1] is 0.518 µM; in test [2] it was 27 µM; in [4], 21.4 µM; in test [5], 0.234 µM; in test [6] it was 20.8 µM; in test [7], 1.64 µM. Further, the results for the GI50 in test [8], in test [9] and in [10] were over 70.2 µM, over 86.6 µM and over 92.4 µM, respectively. Further, the TGI in test [1] was 1.19 µM; in test [2] it was over 100 µM; in [3], over 25.5 µM; in test [4] it was over 100 µM; in [5], 0.82 µM; in test [6], over 100 µM. For the same compound, the TGI in test [8], in test [9] and in [10] was over 100 µM throughout.

On to `COc1ccc(-c2cn(-c3cccc(C(=O)/C=C/c4ccc(O)c(OC)c4)c3)c(=O)[nH]2)cc1`, for which the GI50 in [1] is 3.51 µM; in test [2], 2.91 µM; in test [3] it was 5.79 µM; in [4] it was 2.66 µM; in test [5], 8.25 µM; in test [6], 2.48 µM. Also, the GI50 in test [7] is 3.58 µM; in test [8], 1.99 µM; in [9] it was 3.32 µM; in test [10], 2.42 µM. For the same compound, the TGI was 13.1 µM in test [1]; 14.2 µM in test [2]; 50.4 µM in [3]; 22 µM in test [4]; 35.4 µM in test [5]; 7.37 µM in [6]. Also, the TGI in test [7] was determined as 18.2 µM; in test [8] it was 4.51 µM; in [9], 14.7 µM; in [10] it was 6.22 µM.

As to `CCCOC(=O)N[C@H]1CCc2cc(OC)c(OC)c(OC)c2-c2ccc(SC)c(=O)cc21`, the GI50 in test [1] is under 0.01 µM; in test [2], under 0.01 µM; in test [3] it was under 0.0201 µM; in test [4], under 0.01 µM; in [5], under 0.01 µM; in [6], under 0.01 µM. In addition, the GI50 is under 0.01 µM in [7], 10.1 µM in test [8], under 0.01 µM in test [9] and under 0.01 µM in test [10]. Also, the TGI in test [2] was over 100 µM; in test [3] it was 24.2 µM; in test [4], over 100 µM; in test [5], over 100 µM; in test [6], under 0.0238 µM; in [7], over 100 µM. Also, the TGI in [8] was over 68.1 µM; in [9] it was over 54.1 µM; in [10], 21.5 µM.

As to `Cc1cc([N+](=O)[O-])ccc1NS(=O)(=O)c1cc(Cl)ccc1Cl`, the GI50 is 1.43 µM in test [1]; 2.73 µM in test [2]; 2.54 µM in test [3]; 2.51 µM in test [4]; 5.1 µM in [5]; 3.24 µM in test [6]. Further, the GI50 was 4.61 µM in test [7], 5.17 µM in test [8], 4.49 µM in test [9] and 4.36 µM in test [10]. Also, the TGI in test [1] is 6.24 µM; in test [2], 21.1 µM; in test [3], over 28.4 µM; in test [4], over 49.4 µM; in [5], over 100 µM; in [6] it was over 46.6 µM. Further, the TGI in test [7] was over 100 µM; in test [8] it was over 94.6 µM; in [9] it was over 100 µM; in test [10], over 100 µM.

Regarding `Cc1ccc(C(=O)N2CCN(C(=O)c3ccc(C)cc3)c3ccccc32)cc1`, the TGI in test [1] was over 74.1 µM; in test [2], over 100 µM; in test [3], 82.7 µM; in test [4], over 100 µM; in test [5], over 100 µM; in test [6], 10.6 µM. Besides, the TGI in test [7], in test [8], in [9] and in test [10] was over 100 µM in each case.
